Measurements taken from PubChem BioAssay (NCI).
Values joined by “and” are separate entries in the source; they are usually repeats but may differ in a detail not shown here. Equal entries are not always repeated.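 Compound exposure: 48 hours, 5 concentrations, 96-well plates. Abbreviation: GI50, concentration required for 50% inhibition of growth. TGI: total growth inhibition.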

Tests used:
Test in all cases: NCI tumour cell line growth inhibition, 48 h
[1] = system: 786-0 renal
[2] = system: A498 renal
[3] = system: A549 NSCLC
[4] = system: ACHN renal
[5] = system: BT-549 breast
[6] = system: CAKI-1 renal
[7] = system: CCRF-CEM leukemia
[8] = system: DLD-1 colon
[9] = system: DMS 114 small cell lung
[10] = system: DMS 273 small cell lung
[11] = system: DU-145 prostate
[12] = system: HCC-2998 colon
[13] = system: HCT-116 colon
[14] = system: HCT-15 colon
[15] = system: HL-60(TB) leukemia
[16] = system: HOP-18 NSCLC
[17] = system: HOP-92 NSCLC
[18] = system: HS 578T breast
[19] = system: HT29 colon
[20] = system: IGROV1 ovarian
[21] = system: K-562 leukemia
[22] = system: KM12 colon
[23] = system: KM20L2 colon
[24] = system: LOX IMVI melanoma
[25] = system: LXFL 529 NSCLC
[26] = system: M19-MEL melanoma
[27] = system: MCF7 breast
[28] = system: MDA-MB-231 breast
[29] = system: MDA-MB-435
[30] = system: MDA-N
[31] = system: MOLT-4 leukemia
[32] = system: NCI-H460 lung
[33] = system: NCI-H522 lung
[34] = system: NCI/ADR-RES ovarian
[35] = system: OVCAR-3 ovarian
[36] = system: OVCAR-8 ovarian
[37] = system: P388 leukemia
[38] = system: P388/ADR leukemia
[39] = system: PC-3 prostate
[40] = system: RPMI-8226 leukemia
[41] = system: RXF 393 renal
[42] = system: SF-268 CNS
[43] = system: SF-295 CNS
[44] = system: SF-539 CNS
[45] = system: SK-MEL-28 melanoma
[46] = system: SK-OV-3 ovarian
[47] = system: SN12K1 renal
[48] = system: SNB-19 CNS
[49] = system: SNB-75 CNS
[50] = system: SNB-78 CNS
[51] = system: SR leukemia
[52] = system: T-47D breast
[53] = system: TK-10 renal
[54] = system: UACC-257 melanoma
[55] = system: UO-31 renal
[56] = system: XF 498 CNS

## S=P(N1CC1)(N1CC1)N1CC1
[1]
  GI50: 5.33 µM and 52.4 µM
  TGI: 31.2 µM and 187 µM and 306 µM
[2]
  GI50: 24.5 µM
  TGI: 39.8 µM and 280 µM
[3]
  GI50: 10.2 µM and 84 µM
[4]
  GI50: 3.39 µM
  TGI: 37.3 µM and 335 µM
[5]
  GI50: 224 µM
  TGI: 507 µM and 445 µM
[6]
  GI50: 6.08 µM and 20 µM
[7]
  GI50: 2.11 µM
  TGI: > 85.8 µM and 622 µM
[8]
  GI50: 33.2 µM
  TGI: 77.2 µM and 682 µM
[9]
  GI50: 5.78 µM
  TGI: 36.1 µM and 249 µM
[10]
  GI50: 2.76 µM
  TGI: 37.1 µM and 290 µM
[11]
  GI50: 11.9 µM
  TGI: 520 µM and 97.8 µM
[12]
  GI50: 22.5 µM and 208 µM
[13]
  GI50: 21.2 µM and 171 µM
  TGI: 46.1 µM and 317 µM and 367 µM
[14]
  GI50: 26.2 µM
[15]
  GI50: 0.942 µM and 1.95 µM
[16]
  GI50: 41.5 µM
  TGI: 640 µM
[17]
  GI50: 25.2 µM and 168 µM
  TGI: 50.2 µM and 376 µM and 345 µM
[18]
  GI50: 534 µM
  TGI: 913 µM and 962 µM
[19]
  TGI: 66.7 µM and 500 µM and 617 µM
[20]
  GI50: 38.8 µM and 280 µM
  TGI: 77.2 µM and 361 µM and 507 µM
[21]
  GI50: 24.5 µM
  TGI: 834 µM and 911 µM
[22]
  GI50: 27 µM
[23]
  GI50: 30 µM
  TGI: 62 µM and 464 µM
[24]
  GI50: 7.14 µM and 54.5 µM
  TGI: 42 µM and 307 µM and 294 µM
[25]
  GI50: 21.9 µM
  TGI: 40 µM and 314 µM
[26]
  GI50: 25.7 µM
  TGI: 63 µM and 438 µM
[27]
  TGI: 311 µM and 550 µM
[28]
  GI50: 529 µM
  TGI: 678 µM and 777 µM
[29]
  GI50: 276 µM
  TGI: 403 µM and 509 µM
[30]
  GI50: 257 µM
  TGI: 426 µM and 671 µM
[31]
  GI50: 1.27 µM
  TGI: 53.4 µM and 334 µM and 54.9 µM
[32]
  GI50: 0.588 µM
  TGI: 31.7 µM and 195 µM
[33]
  GI50: 15 µM and 125 µM
  TGI: 33.6 µM and 273 µM and 329 µM
[34]
  GI50: 53.8 µM
  TGI: 511 µM and 225 µM
[35]
  TGI: 48.8 µM and 381 µM and 470 µM
[36]
  GI50: 20.1 µM and 93.7 µM
  TGI: 58.5 µM and 523 µM and 323 µM
[37]
  TGI: 328 µM
[38]
  TGI: 351 µM
[39]
  GI50: 310 µM
  TGI: 805 µM and 834 µM
[40]
  GI50: 28 µM
  TGI: 92.3 µM and 792 µM and 706 µM
[41]
  GI50: 18.8 µM
  TGI: 39.6 µM and 251 µM and 308 µM
[42]
  GI50: 8.67 µM and 24.8 µM
  TGI: 60.6 µM and 536 µM and 476 µM
[43]
  GI50: 6.78 µM
[44]
  GI50: 11.4 µM and 23.3 µM
  TGI: 49 µM and 223 µM and 182 µM
[45]
  GI50: 34.7 µM
  TGI: 72.6 µM and 574 µM
[46]
  GI50: 16 µM and 143 µM
  TGI: 47.2 µM and 406 µM and 296 µM
[47]
  TGI: 373 µM
[48]
  GI50: 18.5 µM and 180 µM
  TGI: > 78.4 µM and 719 µM and 787 µM
[49]
  GI50: 20.4 µM and 186 µM
  TGI: 57.7 µM and 403 µM and 498 µM
[50]
  GI50: 46.1 µM
  TGI: 960 µM
[51]
  TGI: > 51.4 µM and 441 µM
[52]
  GI50: 45.5 µM
  TGI: 950 µM and 913 µM
[53]
  GI50: 44.5 µM and 127 µM
  TGI: > 95.3 µM and 877 µM and 522 µM
[54]
  GI50: 29 µM and 272 µM
[55]
  GI50: 18.2 µM and 28.3 µM
  TGI: 39.3 µM and 288 µM and 69 µM
[56]
  GI50: 13.2 µM
  TGI: 35.8 µM and 230 µM
